Like-named read-outs stand apart in the source and are kept apart here. Residues, ends and D or L forms follow the SMILES beside them. *: point of attachment. Cbz = O=C(OCc1ccccc1)*
Columns and labels:
Test in all cases: Resazurin-based cell viability assay, monotherapy drug screen
Parameters in all cases: species or system human; AUC: scale not given here
BT-549 cells = details: for AUC: area under the dose response curve, 24 h; for GRmax: drug efficacy at highest tested dose (<0 cytotoxic, 0 cytostatic, >0 partial growth inhibition)
How it was run: (§1)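 Cells were seeded at the highest density (tested 1000-16000 cells/well) giving linear growth between days 1 and 3, keeping them in exponential phase over the ~52 h experiment. Viability was read after 4 h at 37 °C with 0.2 mg/ml resazurin added at 10% of medium volume; ex 560/em 615 nm.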

MCF-10A cells = details: for AUC: area under the dose response curve
How it was run: as §1

HCC38 cells = details: for AUC: area under the dose response curve, 24 h; for GRmax: drug efficacy at highest tested dose (<0 cytotoxic, 0 cytostatic, >0 partial growth inhibition)
How it was run: as §1

MDA-MB-436 cells = details: for AUC: area under the dose response curve, 24 h; for GRmax: drug efficacy at highest tested dose (<0 cytotoxic, 0 cytostatic, >0 partial growth inhibition)
How it was run: as §1

HCC1806 cells = details: for AUC: area under the dose response curve, 24 h; for GRmax: drug efficacy at highest tested dose (<0 cytotoxic, 0 cytostatic, >0 partial growth inhibition)
How it was run: as §1

MCF-7 cells = details: for AUC: area under the dose response curve, 24 h; for GRmax: drug efficacy at highest tested dose (<0 cytotoxic, 0 cytostatic, >0 partial growth inhibition)
How it was run: as §1

MDA-MB-453 cells = details: for AUC: area under the dose response curve, 24 h
How it was run: as §1

HCC70 cells = details: for AUC: area under the dose response curve, 24 h; for GRmax: drug efficacy at highest tested dose (<0 cytotoxic, 0 cytostatic, >0 partial growth inhibition)
How it was run: as §1

MDA-MB-468 cells = details: for AUC: area under the dose response curve, 24 h
How it was run: as §1

[1] = Homo sapiens, BT-549, growth rate inhibition concentration at GR(c) = 0.5, 24 h, read-out: GR50 (the source's name)
[2] = Homo sapiens, 24 h drug treatment, read-out: IC50
[3] = Homo sapiens, growth rate inhibition concentration at GR(c) = 0.5, 24 h, read-out: GR50 (the source's name)
[4] = Homo sapiens, HCC38, 24 h drug treatment, read-out: IC50
[5] = Homo sapiens, HCC38, growth rate inhibition concentration at GR(c) = 0.5, 24 h, read-out: GR50 (the source's name)
[6] = Homo sapiens, MDA-MB-436, growth rate inhibition concentration at GR(c) = 0.5, 24 h, read-out: GR50 (the source's name)
[7] = Homo sapiens, HCC1806, growth rate inhibition concentration at GR(c) = 0.5, 24 h, read-out: GR50 (the source's name)
[8] = Homo sapiens, MCF7, MCF-7, growth rate inhibition concentration at GR(c) = 0.5, 24 h, read-out: GR50 (the source's name)
[9] = Homo sapiens, MDA-MB-453, growth rate inhibition concentration at GR(c) = 0.5, 24 h, read-out: GR50 (the source's name)
[10] = Homo sapiens, HCC70, 24 h drug treatment, read-out: IC50
[11] = Homo sapiens, HCC70, growth rate inhibition concentration at GR(c) = 0.5, 24 h, read-out: GR50 (the source's name)
[12] = Homo sapiens, MDA-MB-468, 24 h drug treatment, read-out: IC50
[13] = Homo sapiens, MDA-MB-468, growth rate inhibition concentration at GR(c) = 0.5, 24 h, read-out: GR50 (the source's name)

SMILES | AUC (BT-549 cells; BT-549) | GRmax (BT-549 cells; BT-549) | AUC (MCF-10A cells; 24 h) | AUC (HCC38 cells; HCC38) | GRmax (HCC38 cells; HCC38) | AUC (MDA-MB-436 cells; MDA-MB-436) | GRmax (MDA-MB-436 cells; MDA-MB-436) | AUC (HCC1806 cells; HCC1806) | GRmax (HCC1806 cells; HCC1806) | AUC (MCF-7 cells; MCF-7) | GRmax (MCF-7 cells; MCF-7) | AUC (MDA-MB-453 cells; MDA-MB-453) | AUC (HCC70 cells; HCC70) | GRmax (HCC70 cells; HCC70) | AUC (MDA-MB-468 cells; MDA-MB-468) | IC50 (BT-549 cells; [1]) | IC50 (MCF-10A cells; [2]) | IC50 (MCF-10A cells; [3]) | IC50 (HCC38 cells; [4]) | IC50 (HCC38 cells; [5]) | further results
CC(C)C[C@@H](C=O)NC(=O)[C@H](CC(C)C)NC(=O)[C@H](CC(C)C)NC(=O)OCc1ccccc1 [MG 132, MG-132] (Cbz-Leu-Leu-Leu-aldehyde) | 0.83 | 0.26 | 0.78 | 0.71 | −0.98 | 0.86 | −0.88 | 0.82 | 0.31 | 0.87 | −0.32 | 0.87 | 0.87 | −0.40 | 0.81 |  |  |  |  |  | IC50 (BT-549 cells; Homo sapiens, BT-549, 24 h): 4.3 µM; IC50 (BT-549 cells; Homo sapiens, BT-549, 24 h, read-out: GR50 (µM)): 1.4 µM; IC50 (MCF-10A cells; Homo sapiens, 24 h): 0.94 µM; IC50 (MCF-10A cells; Homo sapiens, 24 h, read-out: GR50 (µM)): 0.4 µM; IC50 (HCC38 cells; Homo sapiens, HCC38, 24 h): 0.57 µM; IC50 (HCC38 cells; Homo sapiens, HCC38, 24 h, read-out: GR50 (µM)): 0.37 µM; IC50 (MDA-MB-436 cells; Homo sapiens, MDA-MB-436, 24 h, read-out: GR50 (µM)): 0.29 µM; IC50 (HCC1806 cells; Homo sapiens, HCC1806, 24 h): 3.1 µM; IC50 (HCC1806 cells; Homo sapiens, HCC1806, 24 h, read-out: GR50 (µM)): 2.5 µM; IC50 (MCF-7 cells; Homo sapiens, MCF7, 24 h, read-out: GR50 (µM)): 0.57 µM; IC50 (MDA-MB-453 cells; Homo sapiens, MDA-MB-453, 24 h, read-out: GR50 (µM)): 1.7 µM; IC50 (HCC70 cells; Homo sapiens, HCC70, 24 h): 3.7 µM; IC50 (HCC70 cells; Homo sapiens, HCC70, 24 h, read-out: GR50 (µM)): 2.1 µM; IC50 (MDA-MB-468 cells; Homo sapiens, MDA-MB-468, 24 h): 1.4 µM; IC50 (MDA-MB-468 cells; Homo sapiens, MDA-MB-468, 24 h, read-out: GR50 (µM)): 0.61 µM
CC(C)C[C@H](NC(=O)CNC(=O)c1cc(Cl)ccc1Cl)B(O)O [MLN 2238, MLN-2238] | 0.75 | 0.40 | 0.72 | 0.59 | −0.99 | 0.88 | −0.78 | 0.75 | 0.39 | 0.87 | −0.29 | 0.81 | 0.78 | −0.36 | 0.67 | 0.14 µM | 0.41 µM | 0.076 µM | 0.11 µM | 0.071 µM | IC50 (MDA-MB-436 cells; [6]): 0.16 µM; IC50 (HCC1806 cells; Homo sapiens, HCC1806, 24 h drug treatment, read-out: IC50): 3 µM; IC50 (HCC1806 cells; [7]): 3.3 µM; IC50 (MCF-7 cells; [8]): 0.34 µM; IC50 (MDA-MB-453 cells; Homo sapiens, MDA-MB-453, 24 h drug treatment, read-out: IC50): 4.3 µM; IC50 (MDA-MB-453 cells; [9]): 0.64 µM; IC50 (HCC70 cells; [10]): 2.7 µM; IC50 (HCC70 cells; [11]): 0.74 µM; IC50 (MDA-MB-468 cells; [12]): 0.24 µM; IC50 (MDA-MB-468 cells; [13]): 0.055 µM
CC(C)C[C@H](NC(=O)CNC(=O)c1cc(Cl)ccc1Cl)B1OC(=O)C(CC(=O)O)(CC(=O)O)O1 [MLN 9708, MLN-9708] | 0.80 | 0.43 | 0.72 | 0.59 | −0.99 | 0.86 | −0.82 | 0.79 | 0.47 | 0.87 | −0.48 | 0.88 | 0.82 | −0.34 | 0.72 | 0.84 µM | 0.38 µM | 0.07 µM | 0.13 µM | 0.069 µM | IC50 (MDA-MB-436 cells; [6]): 0.11 µM; IC50 (HCC1806 cells; [7]): 4.3 µM; IC50 (MCF-7 cells; [8]): 0.27 µM; IC50 (MDA-MB-453 cells; [9]): 1.8 µM; IC50 (HCC70 cells; [10]): 4.8 µM; IC50 (HCC70 cells; [11]): 1.2 µM; IC50 (MDA-MB-468 cells; [12]): 0.8 µM; IC50 (MDA-MB-468 cells; [13]): 0.1 µM
[NH2][Pt]1([NH2])[O]CC(=O)[O]1 [Nedaplatin] | 0.66 | −0.02 | 0.57 | 0.62 | −0.58 | 0.76 | 0.22 | 0.66 | −0.38 | 0.82 | −0.57 | 0.86 | 0.50 | −0.83 | 0.61 |  |  |  |  |  | IC50 (BT-549 cells; BT-549, 24 h drug treatment, read-out: IC50): 0.15 µM; IC50 (BT-549 cells; BT-549, growth rate inhibition concentration at GR(c) = 0.5, 24 h, read-out: GR50 (the source's name)): 0.081 µM; IC50 (MCF-10A cells; 24 h drug treatment, read-out: IC50): 0.075 µM; GRmax (MCF-10A cells; drug efficacy at highest tested dose (<0 cytotoxic, 0 cytostatic, >0 partial growth inhibition)): −0.40; IC50 (MCF-10A cells; growth rate inhibition concentration at GR(c) = 0.5, 24 h, read-out: GR50 (the source's name)): 0.074 µM; IC50 (HCC38 cells; HCC38, 24 h drug treatment, read-out: IC50): 0.093 µM; IC50 (HCC38 cells; HCC38, growth rate inhibition concentration at GR(c) = 0.5, 24 h, read-out: GR50 (the source's name)): 0.054 µM; IC50 (MDA-MB-436 cells; MDA-MB-436, 24 h drug treatment, read-out: IC50): 0.23 µM; IC50 (MDA-MB-436 cells; MDA-MB-436, growth rate inhibition concentration at GR(c) = 0.5, 24 h, read-out: GR50 (the source's name)): 0.13 µM; IC50 (HCC1806 cells; HCC1806, 24 h drug treatment, read-out: IC50): 0.15 µM; IC50 (HCC1806 cells; HCC1806, growth rate inhibition concentration at GR(c) = 0.5, 24 h, read-out: GR50 (the source's name)): 0.12 µM; IC50 (MCF-7 cells; MCF-7, growth rate inhibition concentration at GR(c) = 0.5, 24 h, read-out: GR50 (the source's name)): 0.075 µM; GRmax (MDA-MB-453 cells; MDA-MB-453, drug efficacy at highest tested dose (<0 cytotoxic, 0 cytostatic, >0 partial growth inhibition)): 0.34; IC50 (MDA-MB-453 cells; MDA-MB-453, growth rate inhibition concentration at GR(c) = 0.5, 24 h, read-out: GR50 (the source's name)): 0.41 µM; IC50 (HCC70 cells; HCC70, 24 h drug treatment, read-out: IC50): 0.046 µM; IC50 (HCC70 cells; HCC70, growth rate inhibition concentration at GR(c) = 0.5, 24 h, read-out: GR50 (the source's name)): 0.3 µM; IC50 (MDA-MB-468 cells; MDA-MB-468, 24 h drug treatment, read-out: IC50): 0.067 µM; GRmax (MDA-MB-468 cells; MDA-MB-468, drug efficacy at highest tested dose (<0 cytotoxic, 0 cytostatic, >0 partial growth inhibition)): −0.38
